According to PubChem BioAssay AID330 (DTP/NCI, 2004):
Where “and” joins values, the source holds several entries; their conditions need not be identical. Identical values can stand only once. Toxic doses and inconclusive results are not listed.

Tested on: P388 leukemia ip, CD2F1 mice, survival T/C
Assay: NCI In Vivo Anticancer Drug Screen. Data for tumor model P388 Leukemia (intraperitoneal) in CD2F1 (CDF1) mice
Settings: endpoint: median survival time, higher = longer survival
Summary of the method: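 Mice carrying the transplanted tumor received test compound or vehicle. Survival was recorded in each group, and the value is the treated-group measurement divided by that of the vehicle-treated control group.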

[1] = dose: 6.25 mg/kg/injection, schedule: Q01DX009 (ip), vehicle: saline
[2] = dose: 12.5 mg/kg/injection, schedule: Q01DX009 (ip), vehicle: saline
[3] = dose: 25.0 mg/kg/injection, schedule: Q01DX009 (ip), vehicle: saline
[4] = dose: 6.25 mg/kg/injection, schedule: Q01DX005 (ip), vehicle: Klucel (hydroxypropylcellulose) (HPC)
[5] = dose: 12.5 mg/kg/injection, schedule: Q01DX005 (ip), vehicle: Klucel (hydroxypropylcellulose) (HPC)
[6] = dose: 25.0 mg/kg/injection, schedule: Q01DX005 (ip), vehicle: Klucel (hydroxypropylcellulose) (HPC)
[7] = dose: 60.0 mg/kg/injection, schedule: Q01DX005 (ip), vehicle: saline with Tween-80
[8] = dose: 120.0 mg/kg/injection, schedule: Q01DX005 (ip), vehicle: saline with Tween-80
[9] = dose: 240.0 mg/kg/injection, schedule: Q01DX005 (ip), vehicle: saline with Tween-80
[10] = dose: 50.0 mg/kg/injection, schedule: Q01DX009 (ip), vehicle: saline with Tween-80
[11] = dose: 100.0 mg/kg/injection, schedule: Q01DX009 (ip), vehicle: saline with Tween-80
[12] = dose: 200.0 mg/kg/injection, schedule: Q01DX009 (ip), vehicle: saline with Tween-80
[13] = dose: 25.0 mg/kg/injection, schedule: Q01DX009 (ip), vehicle: saline with Tween-80

For `O=P(N1CCCCC1)(N1CC1)N1CC1`, the T/C (dose: 5.0 mg/kg/injection, schedule: Q04DX003 (ip), vehicle: saline) was 108 % of control, the T/C (dose: 5.56 mg/kg/injection, schedule: Q01DX009 (ip), vehicle: saline) was 195 % of control and the T/C [1] was 163 % of control. The T/C (dose: 10.0 mg/kg/injection, schedule: Q04DX003 (ip), vehicle: saline) was 120 % of control, the T/C [2] was 227 % of control and 86 % of control and the T/C (dose: 20.0 mg/kg/injection, schedule: Q04DX003 (ip), vehicle: saline) was 220 % of control. The T/C [3] was 90 % of control.
For `Cn1ccc2cc(C3CCCc4c3[nH]c3ccccc43)c(OCc3ccccc3)cc21` (centres undefined), the T/C [4] was 99 % of control, the T/C [5] was 97 % of control and the T/C [6] was 97 % of control.
`CC(=O)OCN(C)C=O` was tested, and the T/C (dose: 125.0 mg/kg/injection, schedule: Q01DX005 (ip), vehicle: water) was 96 % of control, the T/C (dose: 250.0 mg/kg/injection, schedule: Q01DX005 (ip), vehicle: water) was 91 % of control and the T/C (dose: 500.0 mg/kg/injection, schedule: Q01DX005 (ip), vehicle: water) was 98 % of control.
In the case of `O=C(O)c1cn2c3c(cc(N4CCN(CCO)CC4)cc3c1=O)SCC2`, the T/C [7] is reported as 104 % of control, the T/C [8] is reported as 113 % of control and the T/C [9] is reported as 105 % of control.
For `Cc1sc2ccccc2c(=O)c1CO`, the T/C [7] was 97 % of control, the T/C [8] was 97 % of control and the T/C [9] was 97 % of control.
For `O=C(NNc1c(F)c(F)c(C(F)(F)F)c(F)c1F)c1ccccc1`, the T/C (dose: 50.0 mg/kg/injection, schedule: Q01DX005 (ip), vehicle: Klucel (hydroxypropylcellulose) (HPC)) was 98 % of control, the T/C (dose: 100.0 mg/kg/injection, schedule: Q01DX005 (ip), vehicle: Klucel (hydroxypropylcellulose) (HPC)) was 100 % of control and the T/C (dose: 200.0 mg/kg/injection, schedule: Q01DX005 (ip), vehicle: Klucel (hydroxypropylcellulose) (HPC)) was 91 % of control.
For `CCC1C(=O)OCC1Cc1cncn1C` (centres undefined), the T/C (dose: 50.0 mg/kg/injection, schedule: Q01DX005 (ip), vehicle: saline) was 100 % of control, the T/C (dose: 100.0 mg/kg/injection, schedule: Q01DX005 (ip), vehicle: saline) was 94 % of control and the T/C (dose: 200.0 mg/kg/injection, schedule: Q01DX005 (ip), vehicle: saline) was 98 % of control.
`CCCCCCC[CH2][Sn]([CH2]CCCCCCC)([NH]S(=O)(=O)c1ccc(C)cc1)[NH]S(=O)(=O)c1ccc(C)cc1` was tested, and the T/C (dose: 25.0 mg/kg/injection, schedule: Q04DX003 (ip), vehicle: saline sonified) was 100 % of control, the T/C (dose: 50.0 mg/kg/injection, schedule: Q04DX003 (ip), vehicle: saline sonified) was 122 % of control and the T/C (dose: 100.0 mg/kg/injection, schedule: Q04DX003 (ip), vehicle: saline sonified) was 100 % of control.
For `CCC(C)NCCNCCNC(C)CC` (centres undefined), the T/C [1] was 100 % of control, the T/C [2] was 100 % of control and the T/C [3] was 100 % of control.
In the case of `O=P(c1ccccc1)(N1CC1)N1CC1`, the T/C (dose: 15.0 mg/kg/injection, schedule: Q04DX003 (ip), vehicle: saline) is reported as 118 % of control and the T/C (dose: 30.0 mg/kg/injection, schedule: Q04DX003 (ip), vehicle: saline) is reported as 122 % of control.
With `Cc1cc(Cl)c2ccc(N(C)C)cc2n1` the T/C [10] was 119 % of control, the T/C [11] was 112 % of control and the T/C [12] was 110 % of control.
In the case of `CN1C2C=C(c3ccc(Cl)cc3)CC1CC2` (centres undefined), the T/C [4] is reported as 106 % of control, the T/C (dose: 6.25 mg/kg/injection, schedule: Q01DX005 (ip), vehicle: saline) is reported as 103 % of control and the T/C [5] is reported as 100 % of control. For the same molecule, the T/C (dose: 12.5 mg/kg/injection, schedule: Q01DX005 (ip), vehicle: saline) was 114 % of control, the T/C [6] was 109 % of control and the T/C (dose: 25.0 mg/kg/injection, schedule: Q01DX005 (ip), vehicle: saline) was 100 % of control.
In the case of `O=C1OCc2cc3c(cc2-c2ccccc21)OCO3`, the T/C (dose: 100.0 mg/kg/injection, schedule: Q04DX002 (ip), vehicle: saline with Tween-80) is reported as 95 % of control, the T/C (dose: 200.0 mg/kg/injection, schedule: Q04DX002 (ip), vehicle: saline with Tween-80) is reported as 101 % of control and the T/C (dose: 400.0 mg/kg/injection, schedule: Q04DX002 (ip), vehicle: saline with Tween-80) is reported as 91 % of control.
For `O=C1CCCc2cc([N+](=O)[O-])ccc2N1`, the T/C (dose: 100.0 mg/kg/injection, schedule: Q01DX001 (ip), vehicle: Klucel (hydroxypropylcellulose) (HPC)) was 101 % of control, the T/C (dose: 200.0 mg/kg/injection, schedule: Q01DX001 (ip), vehicle: Klucel (hydroxypropylcellulose) (HPC)) was 103 % of control and the T/C (dose: 400.0 mg/kg/injection, schedule: Q01DX001 (ip), vehicle: Klucel (hydroxypropylcellulose) (HPC)) was 102 % of control.
In the case of `CC1=CC2OC34COC3CC(OC(=O)C(F)(F)F)C4(C)C2(C)CC1` (centres undefined), the T/C (dose: 24.0 mg/kg/injection, schedule: Q04DX003 (ip), vehicle: saline with Tween-80) is reported as 120 % of control, the T/C (dose: 37.5 mg/kg/injection, schedule: Q04DX003 (ip), vehicle: saline with Tween-80) is reported as 113 % of control and the T/C (dose: 55.0 mg/kg/injection, schedule: Q04DX003 (ip), vehicle: saline with Tween-80) is reported as 112 % of control.
`CCOC(=O)C(C(=O)c1ccccc1)C(=O)C(C)(C)C` (centres undefined) was tested, and the T/C [10] was 100 % of control, the T/C [11] was 91 % of control and the T/C [12] was 95 % of control.
`CC1(C)C(=O)C=C[C@]2(C)[C@H]3CC[C@]4(C)C(=CC[C@H]4c4ccoc4)[C@]3(C)[C@H](O)C[C@@H]12` was tested, and the T/C (dose: 7.81 mg/kg/injection, schedule: Q01DX005 (ip), vehicle: Klucel (hydroxypropylcellulose) (HPC)) was 98 % of control, the T/C (dose: 15.63 mg/kg/injection, schedule: Q01DX005 (ip), vehicle: Klucel (hydroxypropylcellulose) (HPC)) was 98 % of control and the T/C (dose: 31.25 mg/kg/injection, schedule: Q01DX005 (ip), vehicle: Klucel (hydroxypropylcellulose) (HPC)) was 95 % of control. For the same molecule, the T/C (dose: 62.5 mg/kg/injection, schedule: Q01DX005 (ip), vehicle: Klucel (hydroxypropylcellulose) (HPC)) was 95 % of control and the T/C (dose: 125.0 mg/kg/injection, schedule: Q01DX005 (ip), vehicle: Klucel (hydroxypropylcellulose) (HPC)) was 93 % of control.
`[Cl][Sn]([O][Sn]([Cl])([c]1ccccc1)[CH]1CCCCC1)([c]1ccccc1)[CH]1CCCCC1` (centres undefined) was tested, and the T/C (dose: 0.19 mg/kg/injection, schedule: Q01DX005 (ip), vehicle: saline) was 100 % of control, the T/C (dose: 0.39 mg/kg/injection, schedule: Q01DX005 (ip), vehicle: saline) was 105 % of control and the T/C (dose: 0.79 mg/kg/injection, schedule: Q01DX005 (ip), vehicle: saline) was 117 % of control.
In the case of `CC(C)[N+](=C1O[B-](c2ccccc2)(c2ccccc2)O[B-]1(c1ccccc1)[C+]1CCCCC1)C(C)C` (centres undefined), the T/C (dose: 50.0 mg/kg/injection, schedule: Q01DX005 (ip), vehicle: saline with Tween-80) is reported as 102 % of control, the T/C (dose: 100.0 mg/kg/injection, schedule: Q01DX005 (ip), vehicle: saline with Tween-80) is reported as 108 % of control and the T/C (dose: 200.0 mg/kg/injection, schedule: Q01DX005 (ip), vehicle: saline with Tween-80) is reported as 116 % of control.
With `CCOc1cc2c(cc1C(C)(C)c1ccc(OC)cc1)OCO2` the T/C [7] was 98 % of control, the T/C [8] was 109 % of control and 113 % of control and the T/C [9] was 123 % of control.
`COc1cccc2c1C(=O)c1c(O)c3c(c(O)c1C2=O)C[C@@](O)(C(C)=O)C[C@@H]3OC1CC(N2CCC(OC)CC2)C(O)C(C)O1` (some centres undefined) was tested, and the T/C (dose: 0.39 mg/kg/injection, schedule: Q04DX003 (ip), vehicle: water) was 114 % of control, the T/C (dose: 0.78 mg/kg/injection, schedule: Q04DX003 (ip), vehicle: water) was 104 % of control and the T/C (dose: 1.56 mg/kg/injection, schedule: Q04DX003 (ip), vehicle: water) was 111 % of control and 114 % of control. For the same molecule, the T/C (dose: 6.25 mg/kg/injection, schedule: Q04DX003 (ip), vehicle: water) was 181 % of control and 217 % of control and the T/C (dose: 12.5 mg/kg/injection, schedule: Q04DX003 (ip), vehicle: water) was 118 % of control.
`c1ccc2c3c([nH]c2c1)CCCCC3` was tested, and the T/C [13] was 96 % of control, the T/C [10] was 109 % of control and the T/C [11] was 106 % of control. For the same molecule, the T/C [12] was 118 % of control.
In the case of `CC(C)=CCN1C(=O)c2ccccc2C1=O`, the T/C [13] is reported as 109 % of control, the T/C [10] is reported as 109 % of control and the T/C [11] is reported as 104 % of control. For the same molecule, the T/C (dose: 100.0 mg/kg/injection, schedule: Q01DX009 (ip), vehicle: saline) was 94 % of control, the T/C (dose: 100.0 mg/kg/injection, schedule: Q01DX009 (ip), vehicle: suspension in saline) was 98 % of control and 91 % of control and the T/C (dose: 200.0 mg/kg/injection, schedule: Q01DX009 (ip), vehicle: saline) was 102 % of control. For the same molecule, the T/C (dose: 200.0 mg/kg/injection, schedule: Q01DX009 (ip), vehicle: suspension in saline) was 100 % of control and 103 % of control, the T/C (dose: 400.0 mg/kg/injection, schedule: Q01DX009 (ip), vehicle: saline) was 120 % of control and the T/C (dose: 400.0 mg/kg/injection, schedule: Q01DX009 (ip), vehicle: suspension in saline) was 110 % of control and 91 % of control.
In the case of `Cc1ccccc1NC(=O)Oc1ccc(Cl)cc1C(=O)c1ccccc1`, the T/C [7] is reported as 100 % of control, the T/C [8] is reported as 109 % of control and the T/C [9] is reported as 103 % of control.
